Assays:
[1] = tested on: rat retinal photoreceptor cells; experiment: Pathological examination (damage score) of retinal photoreceptor cells in rats treated with different MNU dosages
[2] = tested on: rat retinal photoreceptor; experiment: Electroretinogram of rats treated with different MNU dosages; conditions: for Number of Eyes with extinguished electroretinogram: n = 10

CN(N=O)C(N)=O [MNU, N-methyl-N-nitrosourea]
minimum dosage that could cause damage to the entire outer nuclear layer cell of rat retinal [1]: 40 mg/kg | Damage score of rat retinal photoreceptor cells ([1]; MNU 30 mg/kg, 12 h): 0.20 ± 0.42 | Damage score of rat retinal photoreceptor cells ([1]; MNU 30 mg/kg, 1 d): 0.40 ± 0.52 | Damage score of rat retinal photoreceptor cells ([1]; MNU 30 mg/kg, 3 d): 0.40 ± 0.52 | Damage score of rat retinal photoreceptor cells ([1]; MNU 30 mg/kg, 7 d): 0.20 ± 0.42 | Damage score of rat retinal photoreceptor cells ([1]; MNU 30 mg/kg, 10 d): 0 | Damage score of rat retinal photoreceptor cells ([1]; MNU 35 mg/kg, 12 h): 0.20 ± 0.42 | Damage score of rat retinal photoreceptor cells ([1]; MNU 35 mg/kg, 1 d): 0.60 ± 0.52 | Damage score of rat retinal photoreceptor cells ([1]; MNU 35 mg/kg, 3 d): 0.80 ± 0.42 | Damage score of rat retinal photoreceptor cells ([1]; MNU 35 mg/kg, 7 d): 0.40 ± 0.52 | Damage score of rat retinal photoreceptor cells ([1]; MNU 35 mg/kg, 10 d): 0 | Damage score of rat retinal photoreceptor cells ([1]; MNU 40 mg/kg, 12 h): 1.00 ± 0.67 | Damage score of rat retinal photoreceptor cells ([1]; MNU 40 mg/kg, 1 d): 2.20 ± 1.03 | Damage score of rat retinal photoreceptor cells ([1]; MNU 40 mg/kg, 3 d): 4.60 ± 3.10 | Damage score of rat retinal photoreceptor cells ([1]; MNU 40 mg/kg, 7 d): 7.60 ± 6.29 | Damage score of rat retinal photoreceptor cells ([1]; MNU 40 mg/kg, 10 d): 7.40 ± 6.44 | Damage score of rat retinal photoreceptor cells ([1]; MNU 45 mg/kg, 12 h): 1.6 ± 0.52 | Damage score of rat retinal photoreceptor cells ([1]; MNU 45 mg/kg, 1 d): 4.00 ± 2.31 | Damage score of rat retinal photoreceptor cells ([1]; MNU 45 mg/kg, 3 d): 6.80 ± 5.27 | Damage score of rat retinal photoreceptor cells ([1]; MNU 45 mg/kg, 7 d): 9.60 ± 5.95 | Damage score of rat retinal photoreceptor cells ([1]; MNU 45 mg/kg, 10 d): 9.20 ± 6.20 | Damage score of rat retinal photoreceptor cells ([1]; MNU 50 mg/kg, 12 h): 2.40 ± 1.43 | Damage score of rat retinal photoreceptor cells ([1]; MNU 50 mg/kg, 1 d): 6.80 ± 5.27 | Damage score of rat retinal photoreceptor cells ([1]; MNU 50 mg/kg, 3 d): 10.04 ± 5.06 | Damage score of rat retinal photoreceptor cells ([1]; MNU 50 mg/kg, 7 d): 11.20 ± 5.27 | Damage score of rat retinal photoreceptor cells ([1]; MNU 50 mg/kg, 10 d): 11.20 ± 5.27 | initial dosage that could cause maximum decrease of a-wave and b-wave amplitudes of electroretinogram [2]: 40 mg/kg | lowest dosage which could shorten the a-wave and b-wave latent period of rats electroretinogram to the greatest extent [2]: 40 mg/kg | a-wave amplitude of electroretinogram ([2]; MNU 30 mg/kg, 12 h): 42.24 ± 7.71 | a-wave latent period of electroretinogram ([2]; MNU 30 mg/kg, 12 h): 17.97 ± 2.50 | b-wave amplitude of electroretinogram ([2]; MNU 30 mg/kg, 12 h): 195.8 ± 33.45 | b-wave latent period of electroretinogram ([2]; MNU 30 mg/kg, 12 h): 73.7 ± 6.94 | Number of Eyes with extinguished electroretinogram ([2]; MNU 30 mg/kg, 12 h): 0 | a-wave amplitude of electroretinogram ([2]; MNU 30 mg/kg, 1 d): 34.10 ± 6.35 | a-wave latent period of electroretinogram ([2]; MNU 30 mg/kg, 1 d): 17.82 ± 2.59 | b-wave amplitude of electroretinogram ([2]; MNU 30 mg/kg, 1 d): 153.6 ± 28.76 | b-wave latent period of electroretinogram ([2]; MNU 30 mg/kg, 1 d): 70.41 ± 6.11 | Number of Eyes with extinguished electroretinogram ([2]; MNU 30 mg/kg, 1 d): 0 | a-wave amplitude of electroretinogram ([2]; MNU 30 mg/kg, 3 d): 33.14 ± 9.15 | a-wave latent period of electroretinogram ([2]; MNU 30 mg/kg, 3 d): 17.44 ± 2.40 | b-wave amplitude of electroretinogram ([2]; MNU 30 mg/kg, 3 d): 132.0 ± 24.85 | b-wave latent period of electroretinogram ([2]; MNU 30 mg/kg, 3 d): 67.42 ± 7.05 | Number of Eyes with extinguished electroretinogram ([2]; MNU 30 mg/kg, 3 d): 0 | a-wave amplitude of electroretinogram ([2]; MNU 30 mg/kg, 7 d): 41.11 ± 10.14 | a-wave latent period of electroretinogram ([2]; MNU 30 mg/kg, 7 d): 17.66 ± 2.55 | b-wave amplitude of electroretinogram ([2]; MNU 30 mg/kg, 7 d): 156.5 ± 34.85 | b-wave latent period of electroretinogram ([2]; MNU 30 mg/kg, 7 d): 70.28 ± 6.02 | Number of Eyes with extinguished electroretinogram ([2]; MNU 30 mg/kg, 7 d): 0 | a-wave amplitude of electroretinogram ([2]; MNU 30 mg/kg, 10 d): 44.17 ± 11.13 | a-wave latent period of electroretinogram ([2]; MNU 30 mg/kg, 10 d): 17.30 ± 2.24 | b-wave amplitude of electroretinogram ([2]; MNU 30 mg/kg, 10 d): 188.7 ± 27.7 | b-wave latent period of electroretinogram ([2]; MNU 30 mg/kg, 10 d): 70.31 ± 7.29 | Number of Eyes with extinguished electroretinogram ([2]; MNU 30 mg/kg, 10 d): 0 | a-wave amplitude of electroretinogram ([2]; MNU 35 mg/kg, 12 h): 40.34 ± 8.37 | a-wave latent period of electroretinogram ([2]; MNU 35 mg/kg, 12 h): 17.32 ± 5.87 | b-wave amplitude of electroretinogram ([2]; MNU 35 mg/kg, 12 h): 185.3 ± 23.41 | b-wave latent period of electroretinogram ([2]; MNU 35 mg/kg, 12 h): 73.61 ± 6.37 | Number of Eyes with extinguished electroretinogram ([2]; MNU 35 mg/kg, 12 h): 0 | a-wave amplitude of electroretinogram ([2]; MNU 35 mg/kg, 1 d): 33.20 ± 12.11 | a-wave latent period of electroretinogram ([2]; MNU 35 mg/kg, 1 d): 16.98 ± 2.46 | b-wave amplitude of electroretinogram ([2]; MNU 35 mg/kg, 1 d): 107.52 ± 17.38 | b-wave latent period of electroretinogram ([2]; MNU 35 mg/kg, 1 d): 73.12 ± 6.69 | Number of Eyes with extinguished electroretinogram ([2]; MNU 35 mg/kg, 1 d): 0 | a-wave amplitude of electroretinogram ([2]; MNU 35 mg/kg, 3 d): 30.38 ± 9.61 | a-wave latent period of electroretinogram ([2]; MNU 35 mg/kg, 3 d): 16.83 ± 2.62 | b-wave amplitude of electroretinogram ([2]; MNU 35 mg/kg, 3 d): 104.88 ± 21.83 | b-wave latent period of electroretinogram ([2]; MNU 35 mg/kg, 3 d): 68.15 ± 6.68 | Number of Eyes with extinguished electroretinogram ([2]; MNU 35 mg/kg, 3 d): 0 | a-wave amplitude of electroretinogram ([2]; MNU 35 mg/kg, 7 d): 36.75 ± 7.28 | a-wave latent period of electroretinogram ([2]; MNU 35 mg/kg, 7 d): 17.77 ± 2.25 | b-wave amplitude of electroretinogram ([2]; MNU 35 mg/kg, 7 d): 135.44 ± 22.58

From patent US20090022757A1, “Method for treating photoreceptor cell degeneration” (priority 2007, published 2009)
